Each structure is given as a SMILES string.

The assay has as its system PC3 cells. Put plainly: NAMPT Cell Proliferation Assay. As to conditions: Homo sapiens, PC-3, 120 h, 5 days incubation, cell viability by Cell Titer Glo. The assay is classed as cell-based. In short, it runs like this: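 Five-day CellTiter-Glo viability readout in PC3 cells grown in RPMI/10% heat-inactivated FBS. Compounds added after overnight attachment as a 10-fold dilution series, […]. Percent inhibition fitted to sigmoidal dose-response to derive IC50.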
In general terms: ATP-based viability assays read luminescence as a measure of living cells.
Broadly, the IC50 is the concentration needed to halve the response being measured. Low readings indicate inhibition by little substance, high ones a need for much substance. For the molecule `Cc1ncccc1N1CC(C(=O)Nc2ccc(C3CCN(C(=O)c4ccoc4)CC3)cc2)C1` [Example 165, N-{4-[1-(furan-3-ylcarbonyl)piperidin-4-yl]phenyl}-1-(2-methylpyridin-3-yl)azetidine-3-carboxamide], the IC50 came to 0.0682 µM.

For `Cc1ncccc1N1CC(C(=O)Nc2ccc(C3CCN(C(=O)CN4CCCC4)CC3)cc2)C1` [Example 166, 1-(2-methylpyridin-3-yl)-N-{4-[1-(pyrrolidin-1-ylacetyl)piperidin-4-yl]phenyl}azetidine-3-carboxamide], half-maximal inhibition (IC50) was put at 1.07 µM.

Molecule `Cc1ncccc1N1CC(C(=O)Nc2ccc(C3CCN(C(=O)[C@H]4CCC(=O)N4)CC3)cc2)C1` [Example 167, 1-(2-methylpyridin-3-yl)-N-{4-[1-(5-oxo D-prolyl)piperidin-4-yl]phenyl}azetidine-3-carboxamide] came in with an IC50 of 6.25 µM.

In turn, `Cc1ncccc1N1CC(C(=O)Nc2ccc(C3CCN(C(=O)CCN(C)C)CC3)cc2)C1` [Example 168, N-{4-[1-(N,N-dimethyl-beta-alanyl)piperidin-4-yl]phenyl}-1-(2-methylpyridin-3-yl)azetidine-3-carboxamide] yielded a half-inhibitory concentration (IC50) of 1.01 µM.

`Cc1ncccc1N1CC(C(=O)Nc2ccc(C3CCN(C(=O)c4ccsc4)CC3)cc2)C1` [Example 169, 1-(2-methylpyridin-3-yl)-N-{4-[1-(thiophen-3-ylcarbonyl)piperidin-4-yl]phenyl}azetidine-3-carboxamide] came in with a 50% inhibitory concentration (IC50) of 0.0654 µM.

Regarding `Cc1ncccc1N1CC(C(=O)Nc2ccc(C3CCN(C(=O)C4(C)CC4)CC3)cc2)C1` [Example 170, N-(4-{1-[(1-methylcyclopropyl)carbonyl]piperidin-4-yl}phenyl)-1-(2-methylpyridin-3-yl)azetidine-3-carboxamide], the IC50 worked out at 0.0655 µM.

`Cc1ccsc1C(=O)N1CCC(c2ccc(NC(=O)C3CN(c4cccnc4C)C3)cc2)CC1` [Example 171, 1-(2-methylpyridin-3-yl)-N-(4-{1-[(3-methylthiophen-2-yl)carbonyl]piperidin-4-yl}phenyl)azetidine-3-carboxamide] showed an IC50 of 0.0681 µM.

Take `Cc1ncccc1N1CC(C(=O)Nc2ccc(C3CCN(C(=O)CCC(F)(F)F)CC3)cc2)C1` [Example 172, 1-(2-methylpyridin-3-yl)-N-{4-[1-(4,4,4-trifluorobutanoyl)piperidin-4-yl]phenyl}azetidine-3-carboxamide]: the midpoint of inhibition, the IC50, lay at 0.329 µM.

`Cc1ncccc1N1CC(C(=O)Nc2ccc(C3CCN(C(=O)CN4CCN(C)CC4)CC3)cc2)C1` [Example 173, N-(4-{1-[(4-methylpiperazin-1-yl)acetyl]piperidin-4-yl}phenyl)-1-(2-methylpyridin-3-yl)azetidine-3-carboxamide]: the half-maximal inhibitory concentration (IC50) was 0.627 µM.

As to `Cc1ncccc1N1CC(C(=O)Nc2ccc(C3CCN(C(=O)[C@@H]4CCC(=O)N4)CC3)cc2)C1` [Example 174, 1-(2-methylpyridin-3-yl)-N-{4-[1-(5-oxo-L-prolyl)piperidin-4-yl]phenyl}azetidine-3-carboxamide], the IC50 was 1.13 µM.

The molecule `CCOCCC(=O)N1CCC(c2ccc(NC(=O)C3CN(c4cccnc4C)C3)cc2)CC1` [Example 175, N-{4-[1-(3-ethoxypropanoyl)piperidin-4-yl]phenyl}-1-(2-methylpyridin-3-yl)azetidine-3-carboxamide] had an IC50 of 0.683 µM.

For `Cc1ncccc1N1CC(C(=O)Nc2ccc(C3CCN(C(=O)CCC(C)C)CC3)cc2)C1` [Example 176, N-{4-[1-(4-methylpentanoyl)piperidin-4-yl]phenyl}-1-(2-methylpyridin-3-yl)azetidine-3-carboxamide], 0.218 µM corresponded to half-maximal inhibition (IC50).

`Cc1ncccc1N1CC(C(=O)Nc2ccc(C3CCN(C(=O)C4(C)CCCCC4)CC3)cc2)C1` [Example 177, N-(4-{1-[(1-methylcyclohexyl)carbonyl]piperidin-4-yl}phenyl)-1-(2-methylpyridin-3-yl)azetidine-3-carboxamide] had an IC50 of 0.107 µM.

`CC(=O)N1CCC(c2ccc(NC(=O)C3CN(c4cccnc4C)C3)cc2)CC1` [Example 178, N-[4-(1-acetylpiperidin-4-yl)phenyl]-1-(2-methylpyridin-3-yl)azetidine-3-carboxamide] showed a concentration for half-maximal inhibition (IC50) of 0.3 µM.

`Cc1ncccc1N1CC(C(=O)Nc2ccc(C3CCN(C(=O)CC4CCCCC4)CC3)cc2)C1` [Example 179, N-{4-[1-(cyclohexylacetyl)piperidin-4-yl]phenyl}-1-(2-methylpyridin-3-yl)azetidine-3-carboxamide]: the half-inhibitory concentration (IC50) stood at 0.192 µM.

For `CC(=O)N[C@@H](CC(C)C)C(=O)N1CCC(c2ccc(NC(=O)C3CN(c4cccnc4C)C3)cc2)CC1` [Example 180, N-{4-[1-(N-acetyl-L-leucyl)piperidin-4-yl]phenyl}-1-(2-methylpyridin-3-yl)azetidine-3-carboxamide], the half-maximal inhibitory concentration (IC50) was determined as 0.164 µM.

`CCC(=O)N1CCC(c2ccc(NC(=O)C3CN(c4cccnc4C)C3)cc2)CC1` [Example 181, 1-(2-methylpyridin-3-yl)-N-[4-(1-propanoylpiperidin-4-yl)phenyl]azetidine-3-carboxamide]: inhibition was half-maximal at 0.238 µM (IC50).

`Cc1ncccc1N1CC(C(=O)Nc2ccc(C3CCN(C(=O)CC(F)(F)F)CC3)cc2)C1` [Example 182, 1-(2-methylpyridin-3-yl)-N-{4-[1-(3,3,3-trifluoropropanoyl)piperidin-4-yl]phenyl}azetidine-3-carboxamide] registered a concentration for half-maximal inhibition (IC50) of 0.0879 µM.

On to `COCCOCC(=O)N1CCC(c2ccc(NC(=O)C3CN(c4cccnc4C)C3)cc2)CC1` [Example 183, N-(4-{1-[(2-methoxyethoxy)acetyl]piperidin-4-yl}phenyl)-1-(2-methylpyridin-3-yl)azetidine-3-carboxamide], for which half-maximal inhibition (IC50) required 0.346 µM.

The molecule `Cc1ncccc1N1CC(C(=O)Nc2ccc(C3CCN(C(=O)CCN4CCOCC4)CC3)cc2)C1` [Example 184, 1-(2-methylpyridin-3-yl)-N-(4-{1-[3-(morpholin-4-yl)propanoyl]piperidin-4-yl}phenyl)azetidine-3-carboxamide] displayed an IC50 of 0.604 µM.

In the case of `Cc1ncccc1N1CC(C(=O)Nc2ccc(C3CCN(C(=O)C(C)(C)C)CC3)cc2)C1` [Example 185, N-{4-[1-(2,2-dimethylpropanoyl)piperidin-4-yl]phenyl}-1-(2-methylpyridin-3-yl)azetidine-3-carboxamide], 0.0742 µM corresponded to half-maximal inhibition (IC50).

As for `Cc1ccc(C(=O)N2CCC(c3ccc(NC(=O)C4CN(c5cccnc5C)C4)cc3)CC2)s1` [Example 186, 1-(2-methylpyridin-3-yl)-N-(4-{1-[(5-methylthiophen-2-yl)carbonyl]piperidin-4-yl}phenyl)azetidine-3-carboxamide], the IC50 was 0.627 µM.

`Cc1ncccc1N1CC(C(=O)Nc2ccc(C3CCN(C(=O)c4cccs4)CC3)cc2)C1` [Example 187, 1-(2-methylpyridin-3-yl)-N-{4-[1-(thiophen-2-ylcarbonyl)piperidin-4-yl]phenyl}azetidine-3-carboxamide] came in with a half-inhibitory concentration (IC50) of 0.0206 µM.

Take `Cc1ncccc1N1CC(C(=O)Nc2ccc(C3CCN(C(=O)c4cccn4C)CC3)cc2)C1` [Example 188, 1-(2-methylpyridin-3-yl)-N-(4-{1-[(1-methyl-1H-pyrrol-2-yl)carbonyl]piperidin-4-yl}phenyl)azetidine-3-carboxamide]: the IC50 is 0.0224 µM.

As to `Cc1ncccc1N1CC(C(=O)Nc2ccc(C3CCN(C(=O)c4ccco4)CC3)cc2)C1` [Example 189, N-{4-[1-(furan-2-ylcarbonyl)piperidin-4-yl]phenyl}-1-(2-methylpyridin-3-yl)azetidine-3-carboxamide], it took 0.0146 µM to reach half-maximal inhibition (IC50).

Turning to `Cc1ncccc1N1CC(C(=O)Nc2ccc(C3CCN(C(=O)CCN4CCCCC4)CC3)cc2)C1` [Example 190, 1-(2-methylpyridin-3-yl)-N-(4-{1-[3-(piperidin-1-yl)propanoyl]piperidin-4-yl}phenyl)azetidine-3-carboxamide], the IC50 came to 0.694 µM.

In the case of `CCOCC(=O)N1CCC(c2ccc(NC(=O)C3CN(c4cccnc4C)C3)cc2)CC1` [Example 191, N-{4-[1-(ethoxyacetyl)piperidin-4-yl]phenyl}-1-(2-methylpyridin-3-yl)azetidine-3-carboxamide], the half-inhibitory concentration (IC50) came to 0.677 µM.

With `Cc1ncccc1N1CC(C(=O)Nc2ccc(C3CCN(C(=O)CC(C)(C)C)CC3)cc2)C1` [Example 192, N-{4-[1-(3,3-dimethylbutanoyl)piperidin-4-yl]phenyl}-1-(2-methylpyridin-3-yl)azetidine-3-carboxamide], the midpoint of inhibition, the IC50, lay at 0.0693 µM.

The molecule `CCC(C)(C)C(=O)N1CCC(c2ccc(NC(=O)C3CN(c4cccnc4C)C3)cc2)CC1` [Example 193, N-{4-[1-(2,2-dimethylbutanoyl)piperidin-4-yl]phenyl}-1-(2-methylpyridin-3-yl)azetidine-3-carboxamide] had an IC50 of 0.071 µM.

For `CCCC(=O)N1CCC(c2ccc(NC(=O)C3CN(c4cccnc4C)C3)cc2)CC1` [Example 194, N-[4-(1-butanoylpiperidin-4-yl)phenyl]-1-(2-methylpyridin-3-yl)azetidine-3-carboxamide], the half-inhibitory concentration (IC50) was found to be 0.124 µM.

As to `COCC(=O)N1CCC(c2ccc(NC(=O)C3CN(c4cccnc4C)C3)cc2)CC1` [Example 195, N-{4-[1-(methoxyacetyl)piperidin-4-yl]phenyl}-1-(2-methylpyridin-3-yl)azetidine-3-carboxamide], half-maximal inhibition (IC50) required 0.701 µM.

For the molecule `Cc1ncccc1N1CC(C(=O)Nc2ccc(C3CCN(C(=O)C4CCCCC4)CC3)cc2)C1` [Example 196, N-{4-[1-(cyclohexylcarbonyl)piperidin-4-yl]phenyl}-1-(2-methylpyridin-3-yl)azetidine-3-carboxamide], it took 0.111 µM to reach half-maximal inhibition (IC50).

Regarding `Cc1ncccc1N1CC(C(=O)Nc2ccc(C3CCN(C(=O)CC(C)C)CC3)cc2)C1` [Example 197, N-{4-[1-(3-methylbutanoyl)piperidin-4-yl]phenyl}-1-(2-methylpyridin-3-yl)azetidine-3-carboxamide], 0.103 µM corresponded to half-maximal inhibition (IC50).

The molecule `Cc1ncccc1N1CC(C(=O)Nc2ccc(C3CCN(C(=O)C(C)C(C)C)CC3)cc2)C1` (stereo not shown) [Example 198, N-{4-[1-(2,3-dimethylbutanoyl)piperidin-4-yl]phenyl}-1-(2-methylpyridin-3-yl)azetidine-3-carboxamide] gave a half-maximal inhibitory concentration (IC50) of 0.0716 µM.

(Values after US20130303509A1, “NAMPT INHIBITORS” (AbbVie Inc., priority 2012, published 2013).)
